Data taken from patent publication US20120204273A1, “COMPOSITIONS RELATING TO A PHOSPHOPROTEIN AND METHODS OF USE” (SANFORD-BURNHAM MEDICAL RESEARCH INSTITUTE, priority 2010, published 2012).

Key:
[1] = system: 3T3-L1 adipocytes; assay: Endogenous GLUT4 accumulation in the TIRF zone (fixed adipocytes); assay type: cell-based, mouse; conditions: 100 nM insulin; scrambled siRNA
Experimental: FIG. 2, panels A-C show knockdown of CDP138 in 3T3-L1 adipocytes inhibits insulin-stimulated glucose transport (A) and myc-GLUT4-GFP translocation (B), but not endogenous GLUT4 movement to the periphery detected in TIRF zone (C). (A): Differentiated adipocytes at day 5 were transfected with siRNAs against mouse 5730419I09Rik or the scrambled siRNA (Scr) as described earlier (Jiang et al., 2003) for 60 hrs, then serum starved overnight. Cells were then treated with or without insulin (1 nM and 100 nM) for 30 min for the glucose uptake assay, or 15 min for immunoblotting of CDP138, pAkt, Akt and β-actin. […] Cell surface Myc-GLUT4-GFP was detected with anti-myc monoclonal Ab (9E10) and Alexa Fluor 568-labeled goat anti-mouse IgG in non-permeablized cells. The Myc signal and GFP signal were quantified as previously described (Jiang et al., 2002). […] GLUT4 was detected with a goat anti-GLUT4 Ab and Alexa Fluor 488-conjugated donkey anti-goat Ab in permeabilized cells. […] We also quantified endogenous GLUT4 redistribution to the PM using total internal reflection fluorescence microscopy (TIRFM) with a setting of about 100 nm distance from the coverslip (FIG. 2C, top panel). For this experiment, endogenous GLUT4 was detected by immunofluorescent staining with a goat anti-GLUT4 Ab that recognizes the cytoplasmic C-terminus of GLUT4. […]

[2] = system: 3T3-L1 adipocytes; assay: GSV-PM fusion in live adipocytes (IRAP-pHluorin, TIRF microscopy); assay type: cell-based, mouse
Description: FIG. 3, panels A-C, show knockdown of CDP138 in live 3T3-L1 adipocytes inhibits insulin-stimulated membrane fusion between GLUT4 storage vesicles (GSV) and the PM, but not GLUT4-EGFP trafficking to the TIRF zone. (A): Schematic illustration of the molecular probes and TIRF microcopy-based live cell assays for GLUT4 trafficking and GSV-PM fusion. (B) and (C): The effect of CDP138 knockdown on insulin-stimulated IRAP-pHluorin insertion into the PM (B), and accumulation of GLUT4-EGFP in the TIRF zone (C). Adipocytes (day 4) were transfected by electroporation with plasmid DNA encoding IRAP-pHluorin or GLUT4-EGFP, together with either the scrambled siRNA or smartPool siRNA against mouse 5730419I09Rik. Cells were reseeded on glass-bottomed dishes for 72 hrs, serum starved for 2 hr then stimulated with 100 nM insulin for 30 min. Analyses were performed in a cell warmer adapted for a Nikon TiE with fully motorized combined dual laser (488 and 561 nm). Images were acquired every 3 min immediately after addition of insulin and analyzed as described in the Supplementary Experimental Procedures. Perfect focus system and multiple points capture program (NIS Element) were used to acquire images from multiple positively transfected cells at each time point. […]
Total Internal Reflection Fluorescence (TIRF) Microscopy: Nikon (Melville, N.Y.) TI-TIRF-E, which was based on the objective lens method, was used to perform all the TIRF experiments. […] Positively transfected adipocytes were identified, and the insulin-stimulated IRAP vesicle-PM fusion events or GLUT4-EGFP trafficking to the TIRF zone were recorded every 3 min for a 30 min period using Nikon Eclipse-Ti TIRF microscope. […]
Image Analysis and Quantification: TIRF and wide field fluorescence microscopy were performed using a Nikon inverted microscope (Melville, N.Y.) with a cooled charge-coupled device camera. […]

Q: Which results are given for insulin?
A: enhancement of GLUT4 signal in the TIRF zone [1]: about 2.5 fold; stimulation of GSV fusion with the PM in the TIRF zone [2]: significantly stimulates
